# Test results as given in ChEMBL document CHEMBL3044808, “Laboratory and field comparisons of insecticides to reduce infestation of Drosophila suzukii in berry crops” (2011).
# Activity calls are given as the source filed them. The rule behind the calls is not given here.
# Assays:
# [1] = system: Drosophila suzukii; assay: Insecticidal activity against Drosophila suzukii assessed as mortality at 1 g/ha by direct application at 22 degC measured after 24 hr; format: functional
# [2] = system: Drosophila suzukii; assay: Insecticidal activity against Drosophila suzukii assessed as mortality at 223.9 g/ha by direct application at 22 degC measured after 24 hr; format: functional
# [3] = system: Drosophila suzukii; assay: Insecticidal activity against Drosophila suzukii assessed as mortality at 112.2 g/ha by direct application at 22 degC measured after 24 hr; format: functional
# [4] = system: Drosophila suzukii; assay: Insecticidal activity against Drosophila suzukii assessed as mortality at 112.1 g/ha by direct application at 22 degC measured after 24 hr; format: functional
# [5] = system: Drosophila suzukii; assay: Insecticidal activity against Drosophila suzukii assessed as male mortality at 112.3 g/ha by direct application at 22 degC measured after 24 hr; format: functional, organism-based
# [6] = system: Drosophila suzukii; assay: Insecticidal activity against Drosophila suzukii assessed as mortality at 2.3 g/ha by direct application at 22 degC measured after 24 hr; format: functional
# [7] = system: Drosophila suzukii; assay: Insecticidal activity against Drosophila suzukii assessed as male mortality at 41 g/ha by direct application at 22 degC measured after 24 hr; format: functional, organism-based
# [8] = system: Drosophila suzukii; assay: Insecticidal activity against Drosophila suzukii assessed as male mortality at 2.3 g/ha by direct application at 22 degC measured after 24 hr; format: functional, organism-based
# [9] = system: Drosophila suzukii; assay: Insecticidal activity against Drosophila suzukii assessed as male mortality at 3.31 g/ha by direct application at 22 degC measured after 24 hr; format: functional, organism-based
# [10] = system: Drosophila suzukii; assay: Insecticidal activity against Drosophila suzukii assessed as mortality at 70.2 g/ha by direct application at 22 degC measured after 24 hr; format: functional, organism-based
# [11] = system: Drosophila suzukii; assay: Insecticidal activity against Drosophila suzukii assessed as mortality at 1.1 g/ha by direct application at 22 degC measured after 24 hr; format: functional
# [12] = system: Drosophila suzukii; assay: Insecticidal activity against Drosophila suzukii assessed as mortality at 341.5 g/ha by direct application at 22 degC measured after 24 hr; format: functional
# [13] = system: Drosophila suzukii; assay: Insecticidal activity against Drosophila suzukii assessed as mortality at 41 g/ha by direct application at 22 degC measured after 24 hr; format: functional, organism-based
# [14] = system: Drosophila suzukii; assay: Insecticidal activity against Drosophila suzukii assessed as mortality at 62.3 g/ha by direct application at 22 degC measured after 24 hr; format: functional
# [15] = system: Drosophila suzukii; assay: Insecticidal activity against Drosophila suzukii assessed as mortality at 2.2 g/ha by direct application at 22 degC measured after 24 hr; format: functional
# [16] = system: Drosophila suzukii; assay: Insecticidal activity against Drosophila suzukii assessed as mortality at 112.3 g/ha by direct application at 22 degC measured after 24 hr; format: functional, organism-based
# [17] = system: Drosophila suzukii; assay: Insecticidal activity against Drosophila suzukii assessed as mortality at 3.31 g/ha by direct application at 22 degC measured after 24 hr; format: functional, organism-based
# [18] = system: Drosophila suzukii; assay: Insecticidal activity against Drosophila suzukii assessed as mortality at 24 g/ha by direct application at 22 degC measured after 24 hr; format: functional
# [19] = system: Drosophila suzukii; assay: Insecticidal activity against Drosophila suzukii assessed as mortality at 113.8 g/ha by direct application at 22 degC measured after 24 hr; format: functional, organism-based
# [20] = system: Drosophila suzukii; assay: Insecticidal activity against Drosophila suzukii assessed as mortality at 212.5 g/ha by direct application at 22 degC measured after 24 hr; format: functional, organism-based
# [21] = system: Drosophila suzukii; assay: Insecticidal activity against Drosophila suzukii assessed as mortality at 56.2 g/ha by direct application at 22 degC measured after 24 hr; format: functional
Compound,Activity [5],Activity [7],Activity [8],Activity [9],also measured
CNC(=O)ON=C(C)SC [METHOMYL],–,–,–,–,mortality at 1 g/ha [1]: 100%
CC1(C)C(C=C(Cl)Cl)C1C(=O)OCc1cccc(Oc2ccccc2)c1 (stereo not drawn) [PERMETHRIN],–,–,–,–,mortality at 223.9 g/ha [2]: 100%
Cc1c(COC(=O)[C@@H]2[C@H](/C=C(\Cl)C(F)(F)F)C2(C)C)cccc1-c1ccccc1 (relative stereo) [BIFENTHRIN],–,–,–,–,mortality at 112.2 g/ha [3]: 100%; mortality at 112.1 g/ha [4]: 100%
CNC(=O)Oc1cccc2ccccc12 [CARBARIL],Active,Active,Active,Active,mortality at 2.3 g/ha [6]: 100%
CN1COCN(Cc2cnc(Cl)s2)/C1=N\[N+](=O)[O-],Active,Active,Active,Active,Activity [10]: Active
CCOP(=S)(OCC)Oc1cc(C)nc(C(C)C)n1 [DIMPYLATE],–,–,–,–,mortality at 1.1 g/ha [11]: 100%
CC1(C)C(C(=O)OC(C#N)c2cccc(Oc3ccccc3)c2)C1(C)C (stereo not drawn) [FENPROPATHRIN],–,–,–,–,mortality at 341.5 g/ha [12]: 100%
C/C=C(\C)C(=O)O[C@H]1C[C@@H](OC(C)=O)[C@@]2(C(=O)OC)CO[C@H]3[C@@H](O)[C@@](C)([C@]45O[C@@]4(C)[C@@H]4C[C@H]5O[C@@H]5OC=C[C@@]54O)[C@H]4[C@]1(CO[C@]4(O)C(=O)OC)[C@@H]32,Active,Active,Active,Active,Activity [13]: Active
C=CCC1=C(C)C(OC(=O)C2C(C=C(C)C)C2(C)C)CC1=O (stereo not drawn) [Allethrin],–,–,–,–,mortality at 62.3 g/ha [14]: 79%
CCOC(=O)CC(SP(=S)(OC)OC)C(=O)OCC (stereo not drawn) [MALATHION],–,–,–,–,mortality at 2.3 g/ha [6]: 100%; mortality at 2.2 g/ha [15]: 100%
C/C(=N\C#N)N(C)Cc1ccc(Cl)nc1,Active,Active,Active,Active,Activity [16]: Active
CC[C@H](C)[C@H]1O[C@]2(C=C[C@@H]1C)C[C@@H]1C[C@@H](C/C=C(\C)[C@@H](O[C@H]3C[C@H](OC)[C@@H](O[C@H]4C[C@H](OC)[C@@H](O)[C@H](C)O4)[C@H](C)O3)[C@@H](C)/C=C/C=C3\CO[C@@H]4[C@H](O)C(C)=C[C@@H](C(=O)O1)[C@]34O)O2.CO[C@H]1C[C@H](O[C@H]2[C@H](C)O[C@@H](O[C@@H]3/C(C)=C/C[C@@H]4C[C@@H](C[C@]5(C=C[C@H](C)[C@@H](C(C)C)O5)O4)OC(=O)[C@@H]4C=C(C)[C@@H](O)[C@H]5OC/C(=C\C=C\[C@@H]3C)[C@]54O)C[C@@H]2OC)O[C@@H](C)[C@@H]1O,Active,Active,Active,Active,Activity [17]: Active
CC1(C)C(C=C(Cl)Cl)C1C(=O)OC(C#N)c1ccc(F)c(Oc2ccccc2)c1 (stereo not drawn) [CYFLUTHRIN],–,–,–,–,mortality at 24 g/ha [18]: 100%
CNC(=O)c1cc(Cl)cc(C)c1NC(=O)c1cc(Br)nn1-c1ncccc1Cl,Active,Active,Active,Active,Activity [19]: Active
O=C(NC(=O)c1c(F)cccc1F)Nc1ccc(OC(F)(F)C(F)OC(F)(F)F)c(Cl)c1 (stereo not drawn),–,–,–,–,Activity [20]: Active
CC(C)[C@H](C(=O)O[C@H](C#N)c1cccc(Oc2ccccc2)c1)c1ccc(Cl)cc1,–,–,–,–,mortality at 56.2 g/ha [21]: 100%
O=S1OCC2C(CO1)C1(Cl)C(Cl)=C(Cl)C2(Cl)C1(Cl)Cl (stereo not drawn),–,–,–,–,Activity [11]: Active
